Tests used:
Assay in all cases: relative viability (nuclei count vs DMSO), 5 days (fraction); higher = more cells survive
XMD13-2 + Vorinostat = compound: C1CC1C(=O)NC2=NNC3=C2C=CC(=C3)C4=CC(=CC=C4)C(=O)NC5CC5 [XMD13-2] + O=C(CCCCCCC(=O)Nc1ccccc1)NO [Vorinostat] (partner 1 µM)
How it was run: (§1)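 For relative viability, nuclei counts in treated wells were divided by those in vehicle wells. Lung cancer cell lines had been pin-tool dosed in 1536-well plates the day after seeding and cultured for 5 days, then fixed and stained in one step (final 0.05% Triton X-100, 1% formaldehyde, 1 ug/ml Hoechst) and imaged at 4×. Doses were one drug alone or a fixed anchor-drug dose plus five library-drug doses (not always all listed) in √10 steps, and values are duplicate-plate medians.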

Dasatinib + Trametinib = compound: Cc1nc(Nc2ncc(C(=O)Nc3c(C)cccc3Cl)s2)cc(N2CCN(CCO)CC2)n1 [Dasatinib] + CC(=O)Nc1cccc(-n2c(=O)n(C3CC3)c(=O)c3c(Nc4ccc(I)cc4F)n(C)c(=O)c(C)c32)c1 [Trametinib] (partner 0.02 µM)
How it was run: as §1

Dasatinib + Linsitinib = compound: Cc1nc(Nc2ncc(C(=O)Nc3c(C)cccc3Cl)s2)cc(N2CCN(CCO)CC2)n1 [Dasatinib] + C[C@]1(O)C[C@@H](c2nc(-c3ccc4ccc(-c5ccccc5)nc4c3)c3c(N)nccn32)C1 [Linsitinib] (partner 1 µM)
How it was run: as §1

Dasatinib + Tozasertib = compound: Cc1nc(Nc2ncc(C(=O)Nc3c(C)cccc3Cl)s2)cc(N2CCN(CCO)CC2)n1 [Dasatinib] + Cc1cc(Nc2cc(N3CCN(C)CC3)nc(Sc3ccc(NC(=O)C4CC4)cc3)n2)n[nH]1 [Tozasertib] (partner 0.1 µM)
How it was run: as §1

Row | Cell Line | relative viability (XMD13-2 + Vorinostat; first compound 0.05 µM) | relative viability (XMD13-2 + Vorinostat; first compound 0.1581 µM) | relative viability (XMD13-2 + Vorinostat; first compound 0.5 µM) | relative viability (XMD13-2 + Vorinostat; first compound 1.581 µM) | relative viability (XMD13-2 + Vorinostat; first compound 5 µM) | relative viability (Dasatinib + Trametinib; first compound 0.005 µM) | relative viability (Dasatinib + Trametinib; first compound 0.01581 µM) | relative viability (Dasatinib + Trametinib; first compound 0.05 µM) | relative viability (Dasatinib + Trametinib; first compound 0.1581 µM) | relative viability (Dasatinib + Trametinib; first compound 0.5 µM) | relative viability (Dasatinib + Linsitinib; first compound 0.005 µM) | relative viability (Dasatinib + Linsitinib; first compound 0.01581 µM) | relative viability (Dasatinib + Linsitinib; first compound 0.05 µM) | relative viability (Dasatinib + Linsitinib; first compound 0.1581 µM) | relative viability (Dasatinib + Linsitinib; first compound 0.5 µM) | relative viability (Dasatinib + Tozasertib; first compound 0.005 µM) | relative viability (Dasatinib + Tozasertib; first compound 0.01581 µM) | relative viability (Dasatinib + Tozasertib; first compound 0.05 µM) | relative viability (Dasatinib + Tozasertib; first compound 0.1581 µM) | relative viability (Dasatinib + Tozasertib; first compound 0.5 µM)
1 | 201T | 0.997 | 1.04 | 1.05 | 0.981 | 1.04 | 0.695 | 0.64 | 0.708 | 0.575 | 0.44 | 1.03 | 0.953 | 0.812 | 0.679 | 0.371 | 0.877 | 0.746 | 0.751 | 0.606 | 0.425
2 | A549 | – | – | – | – | – | – | – | – | – | – | 0.518 | 0.348 | 0.34 | 0.211 | 0.0589 | – | – | – | – | –
3 | A-427 | 0.927 | 0.852 | 0.862 | – | 0.705 | 0.76 | 0.598 | 0.713 | 0.433 | 0.408 | 1.1 | 1.14 | 0.995 | 0.574 | 0.535 | 0.223 | 0.214 | 0.176 | 0.142 | 0.156
4 | ABC-1 | 1.3 | 0.979 | 1.03 | – | 0.774 | – | – | – | – | – | 0.743 | 0.704 | 0.592 | 0.452 | 0.49 | 0.174 | 0.217 | 0.172 | 0.15 | 0.154
5 | BEN | 0.625 | 0.543 | 0.585 | 0.574 | 0.487 | 0.891 | 0.614 | 0.8 | 0.528 | 0.511 | 0.776 | 0.476 | 0.531 | 0.38 | 0.322 | 0.516 | 0.412 | 0.489 | 0.415 | 0.406
6 | CAL-12T | 0.76 | 0.652 | 0.792 | 0.71 | 1.06 | 0.331 | 0.324 | 0.343 | 0.198 | 0.138 | 0.848 | 0.853 | 0.853 | 0.46 | 0.286 | 0.386 | 0.346 | 0.297 | 0.228 | 0.112
7 | COR-L23 | 0.58 | 0.566 | 0.737 | 0.368 | 0.544 | 0.563 | 0.416 | 0.48 | 0.444 | 0.281 | 0.867 | 0.665 | 0.613 | 0.329 | 0.242 | 0.199 | 0.159 | 0.173 | 0.119 | 0.109
8 | COR-L 105 | 0.781 | 0.929 | 1.01 | 0.79 | 0.847 | 0.445 | 0.358 | 0.389 | 0.336 | 0.253 | 0.753 | 0.522 | 0.689 | 0.366 | 0.263 | 0.375 | 0.299 | 0.332 | 0.228 | 0.208
9 | Calu-6 | – | – | – | – | – | – | – | – | – | – | 0.764 | 0.811 | 0.694 | 0.561 | 0.424 | – | – | – | – | –
10 | ChaGo-K-1 | 0.789 | 0.635 | 0.837 | 0.7 | 0.716 | 0.89 | 0.855 | 0.95 | 0.777 | 0.6 | – | – | – | – | – | 0.23 | 0.203 | 0.207 | 0.21 | 0.186

Source: the supplement of paper PMC10307832
